Consider three compounds from patent publication US20110217715A1, “GENE EXPRESSION IN DUCHENNE MUSCULAR DYSTROPHY” (CHILDREN'S HOSPITAL MEDICAL CENTER, priority 2008, published 2011).

One assay deals with individuals with DMD. The conditions noted are these: individuals with DMD; cited from earlier work.
Assay [1] concerns mRNA expression in peripheral blood of individuals with DMD. Nature of the assay: Whole-blood gene expression microarray: DMD administered prednisone or deflazacort vs DMD not administered steroid. The assay is classed as in vivo, human. The protocol:
Fifteen ml of blood was collected from each individual into 6 PAXgene® Vacutainer® tubes (PreAnalytiX, Germany) by antecubital fossa venipuncture. PAXgene® tubes contain a proprietary reagent that immediately stabilizes RNA, thus reducing RNA degradation and minimizing gene expression changes following phlebotomy. The tubes were then inverted 20 times, then remained undisturbed for 2 h at room temperature (about 19° C. to about 22° C.), and then stored at -70° C. until processed. Total RNA was isolated using the Paxgene® blood RNA kit (PreAnalytiX, Germany) according to the manufacturers instructions. The RNA isolated is from all cells in whole blood. […] Sample labeling, hybridization to chips, and image scanning were performed using standard Affymetrix protocols. For each whole blood sample from control individuals and individuals with DMD, total RNA was labeled using the One-Cycle Target Labeling protocol and hybridized to the arrays. […] Double-stranded cDNA synthesis, biotin-labeled cRNA synthesis, and cRNA fragmentation were performed according to the Affymetrix GeneChip Eukaryotic Expression Analysis protocol. […] After hybridization, the array was washed and stained. […] After scanning the array, the raw probe level values for each probe were saved in Affymetrix.cel files. […] Statistical analyses, including t-test analyses, unsupervised hierarchical clustering, and principal component analyses were conducted using Genespring 7.2 software ([…]® 7, Silicon Genetics, Redwood City Calif.). […] Corrections for multiple comparisons used a Benjamini-Hochberg False Discovery Rate (FDR) of 0.05, disclosed in Tang et al., J Cereb Blood Flow Metab 26 (2006) 1089, which is expressly incorporated by reference herein in its entirety. […] Individuals with DMD were evaluated and had been diagnosed by a single board-certified pediatric neurologist. The diagnosis of DMD was based in part upon clinical history, examination findings, and selected muscle biopsies and was confirmed by molecular diagnostic testing. […] Sample processing and array hybridization, probe-level data analysis, and statistical analysis were identical to Example 1.

The test system is the same in assay [2]. The assay is described as follows: Whole-blood gene expression microarray: DMD administered deflazacort vs DMD administered prednisone. Type of assay: in vivo, human. The conditions noted are these: blood. The protocol:
Fifteen ml of blood was collected from each individual into 6 PAXgene® Vacutainer® tubes (PreAnalytiX, Germany) by antecubital fossa venipuncture. PAXgene® tubes contain a proprietary reagent that immediately stabilizes RNA, thus reducing RNA degradation and minimizing gene expression changes following phlebotomy. The tubes were then inverted 20 times, then remained undisturbed for 2 h at room temperature (about 19° C. to about 22° C.), and then stored at -70° C. until processed. Total RNA was isolated using the Paxgene® blood RNA kit (PreAnalytiX, Germany) according to the manufacturers instructions. The RNA isolated is from all cells in whole blood. Typical yields of total RNA isolated from about 7.5 ml of human whole blood were between 10 μg RNA and 40 μg RNA. RNA quality and purity was analyzed by spectrophotometry using the Nanodrop ND-1000, and RNA integrity was analyzed using the Agilent 2100 Bioanalyzer. […] Sample labeling, hybridization to chips, and image scanning were performed using standard Affymetrix protocols. For each whole blood sample from control individuals and individuals with DMD, total RNA was labeled using the One-Cycle Target Labeling protocol and hybridized to the arrays. […] Double-stranded cDNA synthesis, biotin-labeled cRNA synthesis, and cRNA fragmentation were performed according to the Affymetrix GeneChip Eukaryotic Expression Analysis protocol. The labeled, fragmented cRNA (15 μg) was hybridized at 45° C. overnight. After hybridization, the array was washed and stained. The arrays were scanned with an argon-ion laser at λ=570 nm, with a resolution of 3 μm/pixel (Affymetrix, Inc.). After scanning the array, the raw probe level values for each probe were saved in Affymetrix.cel files. […] Statistical analyses, including t-test analyses, unsupervised hierarchical clustering, and principal component analyses were conducted using Genespring 7.2 software ([…]® 7, Silicon Genetics, Redwood City Calif.). […] Corrections for multiple comparisons used a Benjamini-Hochberg False Discovery Rate (FDR) of 0.05, disclosed in Tang et al., J Cereb Blood Flow Metab 26 (2006) 1089, which is expressly incorporated by reference herein in its entirety. […] Sample processing and array hybridization, probe-level data analysis, and statistical analysis were identical to Example 1.

Another assay has as its system mdx mouse. The conditions noted are these: cited from earlier work.
The mark [3] stands for this setting: DMD administered deflazacort or prednisone vs not administered.

Turning to `Cn1cnc([N+](=O)[O-])c1Sc1ncnc2nc[nH]c12` [azathioprine], the “muscle function and strength” value in the assay with individuals with DMD is “no improvement”.

For `C[C@]12C=CC(=O)C=C1CC[C@@H]1[C@@H]2C(=O)C[C@@]2(C)[C@H]1CC[C@]2(O)C(=O)CO` [prednisone], in assay [1] (setting [3]), the “expression levels of FKBP5” value is reported as “up-regulated”; the “expression levels of genes in the chondroitin sulfate biosynthesis pathway” value is “up-regulated”; the “expression levels of haptoglobin and CD163 nucleic acids” value was “up-regulated”; the “expression levels of lactotransferrin and lipocalin” value is “increased expression levels”. In addition, in assay [1] (individuals administered prednisone, deflazacort, or both vs DMD not administered any agent), the “expression of KFL10” value is “up-regulated”. Also, the “expression of interleukin 1 beta, interleukin 1 receptor antagonist, and interleukin 6 receptor” value in assay [2] (individuals with DMD administered prednisone) was “up-regulated”. Further, the “expression of genes related to lipid metabolism” value in assay [2] (prednisone compared to deflazacort) is reported as “up-regulated”. Moreover, in the assay on mdx mouse (six weeks of prednisone administration in the mdx mouse), the “expression of KFL10” value is on record as “up-regulated”. Besides, the “muscle function and strength” value in the assay on individuals with DMD is “improved muscle function and strength”.

For the compound cyclosporin A, the function and histology entry with mdx mouse (mdx mouse) is “improves function and histology”.
